Non-standard residues stand in square brackets, D forms with d. Residues, ends and D or L forms follow the SMILES beside them. No end group written: not given here.
Key:
[1] = tested on: Monoclonal antibody cocktail-induced arthritis mice; assay: Arthritis suppressing effects on arthritis-induced mice, Part 4; format: in vivo; settings: intraperitoneal 100 mg/kg once a day from day 4; methotrexate 0.1 mg/kg
Protocol: Monoclonal antibody cocktail-induced arthritis mice were used to examine arthritis suppressing effects of peptides which are indicated as R13 in the section (3) in Example 2 and as R19 and R21 in the section (4) in Example 2. Arthritis was caused by intravenous administration of 2 mg/mouse of an arthritis-inducing monoclonal antibody cocktail and three days later, intraperitoneal administration of 50 μg/mouse of LPS. The peptides […] days from four days after the administration of the arthritis-inducing monoclonal antibody cocktail, and arthritis suppressing effect was examined in terms of clinical score and hind-limb volume determination.
The required amount was calculated for each peptide, based on the animal weight. […]
Measurement of body weight of animals was made on days 0, 3, 6, 9, 12, and 14 during the study period, with day 0 being the day of administration of the arthritis-inducing monoclonal antibody cocktail. Observation of general condition was made on a daily basis. […]
Results of examinations were expressed by mean value±standard error and analyzed using EXSAS (Version 7.1.6, Arm Systex Co., Ltd.). […] Quantitative data, such as body weights and leg volumes, were subjected to Bartlett's test, followed by Dunnett's multiple comparison test when the variance was uniform or Steel's multiple comparison test when the variance was not uniform.

[2] = tested on: type III allergic (Arthus) reaction-induced rats; assay: Immune-complex disease suppression in type III allergic (Arthus) reaction-induced rats, Part 2; format: in vivo
Protocol: Using forty-five 7-week-old male Slc:Wistar rats, examinations were made on peptides R13 and R19, in two series of examinations, each using a different method of administration (intraperitoneal administration and tail vein administration). Acclimation was carried out by giving normal solid chow CRF-1 for a period of 6 or 8 days. The back of the animals was shaved on the day prior to administration, and a mixed solution of OVA and Evans blue dye was administered into the tail vein on the day of administration. Each peptide solution was administered intraperitoneally or into the tail vein 30 minutes or 50 minutes after the administration of the mixed solution of OVA and Evans blue dye, respectively. For intracutaneous administration of an anti-OVA solution, […] was intracutaneously administered in the back of animals at a dose of 0.1 ml/site 30 minutes or 10 minutes after the administration of the tested substance in the case of intraperitoneal or intravenous administration, respectively, so as to generate a local Arthus reaction. After the reaction was allowed to be generated for 4 hours, the animals were euthanized, the blood was removed thoroughly, and then the dorsal skin was exfoliated. The Arthus reaction sites on the exfoliated skin were punched out, and the Evans blue dye was extracted from the punched skin overnight. The amount of dye leakage was quantified by measuring absorbance for the Evans blue dye with a spectrophotometer and using a calibration curve.
A suspension was prepared by placing a predetermined amount of hydrocortisone into a mortar, grinding it with pestle, and then adding physiological saline to make the final concentration of 10 mg/ml.
A predetermined amount of each peptide (peptides R13 and R19) was dissolved in physiological saline to make a 20 mg/ml solution. A 2 mg/ml solution was prepared by diluting the 20 mg/ml solution 10-fold with physiological saline. A 5 mg/ml solution was prepared by dissolving each peptide in a predetermined amount in physiological saline to make a prepared solution.
A mixed solution of OVA and Evans blue dye was administered into the tail vein at a dose of 2 ml/kg. Each peptide solution was administered intraperitoneally or into the tail vein 30 minutes or 50 minutes after the administration of the mixed solution of OVA and Evans blue dye, respectively. […]
Several cuttings were made in the skin strips that were punched out with a punch. […] The amount of dye leakage was calculated from a calibration curve of known amounts of the dye.
The mean value (mean)±standard deviation (SD) for each group was calculated with body-weight measurements and amounts of dye leakage. […]

[3] = tested on: binding between human C1q protein and human immunoglobulin (IgG); assay: Inhibition of binding between C1q and immunoglobulin (C1q spotted on nitrocellulose membrane, ALP-labeled IgG); settings: peptide concentration 500 μg/ml, 400 ng human C1q per spot
Text: Peptides were synthesized by GL Biochem (Shanghai), which have the following amino acid sequences: the amino acid sequence depicted in SEQ ID NO: 2 (peptide R2); a shorter amino acid sequence than this peptide, PGLYYF (SEQ ID NO: 1) (peptide R1); and amino acid sequences including the amino acid sequence depicted in SEQ ID NO: 2, SGKFTCKVPGLYYFT (SEQ ID NO: 3) (peptide R3), FTCKVPGLYYFTYHA (SEQ ID NO: 4) (peptide R4), STGKFTCKVPGLYYF (SEQ ID NO: 5) (peptide R5), and CKVPGLYYFVYHASH (SEQ ID NO: 7) (peptide R6). Each peptide was dissolved in DMSO to make a concentration of 10 mg/ml and stored.
Human C1q protein (Carbiochem) was dissolved in 10 mM HEPES, 300 mM NaCl, 40% glycerol (pH 7.2) to prepare a 200 μg/ml solution of human C1q protein. The solution of human C1q protein was spotted at a volume of 2 μl (400 ng) per spot onto a nitrocellulose membrane of a size of 5 mm by 15 mm (Hybond C; Amersham), which was then air-dried at room temperature for about one hour. The nitrocellulose membrane was soaked in TBS, incubated for 5 minutes, and blocked at room temperature for one hour using TBS (20 mM Tris-HCl, pH 7.5, 150 mM NaCl) containing 5% of a blocking agent (Amersham ECL blocking reagent; GE Healthcare). […]

[4] = tested on: rat collagen-arthritis model; assay: Arthritis suppressing effects on rat collagen-arthritis model; format: in vivo, rats
Protocol: A rat collagen-arthritis model was used to examine arthritis suppressing effects of a peptide, referred to as peptide R13.
Female Lewis rats were primed with 500 μg of type II bovine-derived collagen and boosted with 100 μg of the same collagen at 7 and 14 days post priming, to induce collagen arthritis. Peptide R13, a scramble peptide (dYdPdYGdFdL), or methotrexate was administered once a day for a period of 25 consecutive days from 12 days after arthritis was fully developed, and arthritis suppressing effect was examined in terms of clinical score. Methotrexate was administered at a dose of 0.15 mg/kg as a control drug.
The required amount was calculated for each peptide, based on the animal weight. Physiological saline was gradually added to prepare suspensions, to make concentrations of 100 and 10 mg/ml.
The clinical score of each limb of the extremities in all cases was observed every third day from day 12, on which arthritis was developed, up to day 36, with day 0 being the day of priming with type II bovine-derived collagen. Observations were according to the following criteria, with the total score for the extremities being set to a maximum of 12. […]

[5] = tail vein administration, 10 mg/kg

**Q.** With “dSdKdVdPGdLdYdYdF ([dS][dK][dV][dP]G[dL][dY][dY][dF]) [R19]” as the compound, how does the “arthritis-suppressing effect (clinical score) compared with methotrexate” value [1] read?
**A.** arthritis-suppressing effect comparable to or greater than that of methotrexate

**Q.** And the “suppression (decrease of dye leakage) compared to negative control” value ([2]; intraperitoneal administration, 100 mg/kg)?
**A.** 50%

**Q.** What about the “suppression effect (dye leakage) compared to negative control” value ([2]; intraperitoneal administration, 10 or 100 mg/kg) of the same compound?
**A.** suppressed

**Q.** And the “suppression (decrease of dye leakage) compared to negative control” value [2, 5]?
**A.** about 50%

**Q.** What about the “suppression effect (dye leakage) compared to negative control” value [2, 5] of the same compound?
**A.** suppressed

**Q.** Which “inhibition of the binding between C1q and immunoglobulin” value [3] does the source give for “STAKFTCKVPGLYYF (Immunoglobulin binding peptide) [R11]” here?
**A.** inhibit the binding

**Q.** For “CKAPGLYYF (Immunoglobulin binding peptide) [R10]”, which “inhibition of the binding between C1q and immunoglobulin” value [3] is on record?
**A.** inhibit the binding

**Q.** “dYdPdYGdFdL [scramble peptide, reference compound]” was tested. Which “suppression effect (clinical score)” value ([4]; negative control peptide, once a day, 25 consecutive days) did it give?
**A.** did not exhibit any suppression effects

**Q.** `CC(C)C[C@@H](NC(=O)CNC(=O)[C@H]1CCCN1)C(=O)N[C@H](Cc1ccc(O)cc1)C(=O)N[C@H](Cc1ccc(O)cc1)C(=O)N[C@H](Cc1ccccc1)C(=O)O` [R13, dPGdLdYdYdF] (H-[dP]G[dL][dY][dY][dF]-OH) was tested. Which “abnormalities in general condition and effects on body weight” value ([4]; 100 and 10 mg/kg) did it give?
**A.** abnormalities in general condition and effects on body weight were not observed
